For this assay, the target named is T1, TIR domain of TIR-1 (Caenorhabditis elegans, UniProt Q86DA5).
T1 sequence (Q86DA5 707-930): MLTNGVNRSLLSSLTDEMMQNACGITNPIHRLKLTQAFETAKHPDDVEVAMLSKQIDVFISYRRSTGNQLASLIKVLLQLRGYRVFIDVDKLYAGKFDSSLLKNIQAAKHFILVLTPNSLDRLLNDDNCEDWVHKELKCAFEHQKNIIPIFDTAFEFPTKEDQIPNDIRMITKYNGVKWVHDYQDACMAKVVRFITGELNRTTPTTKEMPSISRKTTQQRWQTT
As to the kind of experiment: direct fluorescent base exchange assay. The format is biochemical. Particulars: […] °C.

Regarding `NC(=O)c1ccc[n+]([C@@H]2O[C@H](COP(=O)(O)OP(=O)(O)OC[C@H]3O[C@@H](n4cnc5c(N)ncnc54)[C@H](O)[C@@H]3O)[C@@H](O)[C@H]2O)c1` [NAD^+], the Km ([…] PC6 (saturating), […] PEG […] Tris pH […] NaCl) came to 630 µM.
In the case of `CCOc1ccc(/C=C/c2ccncc2)cc1` [PC6], the Km ([…] NAD+ (saturating), […] PEG […] Tris pH […] NaCl) was 165 µM.

By Km is commonly meant the concentration of substrate that gives half-maximal velocity.

The values above are taken from paper PMC10795796 (Biochemistry, 2023).
